Earlier results on two molecules are cited in US20070014831A1, “Biodegradable occlusive device with moisture memory” (priority 2005, published 2007).

A value given as a limit tells only on which side of the number the result lay.

The conditions of data set [1]: J Biomater Sci Polymer Edn 1999;10:63-78.
The conditions of data set [2]: in vivo.

With `COC(=O)C1=CO[C@@H](O)[C@@H]2C(CO)=CC[C@H]12` [Genipin], the “cytotoxicity compared with glutaraldehyde” value in data set [1] is “significantly less cytotoxic than glutaraldehyde”.

Turning to `O=CCCCC=O` [glutaraldehyde], the “concentration at which cytotoxic” value with tissue culture is recorded as 10-25 ppm. Moreover, in the data set with tissue culture (in tissue culture, as low as), the “concentration at which cytotoxic in tissue culture” value is listed as at least 3 ppm. Also, the “glutaraldehyde concentration used to crosslink materials above which a persistent foreign-body reaction occurred” value in data set [2] was “above 0.05%”.
